According to ChEMBL document CHEMBL1129150, “Novel antifungal 2-aryl-1-(1H-1,2,4-triazol-1-yl)butan-2-ol derivatives with high activity against Aspergillus fumigatus” (1996):
Values after ≈ are worked out from the molar mass of the structure shown. Values joined by “and” are separate entries in the source; they are usually repeats but may differ in a detail not shown here. Identical values can stand only once.

Experiments:
Type in all cases: functional
Mus musculus [1] = assay: Number of mice cured after 10 days against Aspergillus fumigatus on intravenous infection to mice
Mus musculus [2] = assay: Number of mice surviving due to reduction in kidney fungal burden after 10 days against Aspergillus fumigatus on intravenous infection to mice
Aspergillus fumigatus [3] = assay: In vitro for the antifungal activity against Aspergillus fumigatus.
Aspergillus fumigatus [4] = assay: In vitro antifungal activity against Aspergillus fumigatus after 24 hr. incubation
Nakaseomyces glabratus = assay: In vitro antifungal activity against Candida glabrata
Pichia kudriavzevii = assay: In vitro antifungal activity against Candida krusei
Candida albicans [5] = assay: In vitro antifungal activity against Candida albicans
Cryptococcus neoformans = assay: In vitro antifungal activity against Cryptococcus neoformans
Candida albicans [6] = assay: In vitro antifungal activity against Candida albicans after 24 hr. incubation
[7] = Aspergillus fumigatus, read-out: MIC
[8] = Aspergillus fumigatus, 24 h, read-out: MFC

C[C@@H](c1ccncc1)[C@](O)(Cn1cncn1)c1ccc(F)cc1F
No. of cures (Mus musculus [1]): 0
No. of survivors (Mus musculus [2]): 4
MIC (Aspergillus fumigatus [3]; [7]): 0.05 µg/mL (≈ 0.151 µM)
MFC (Aspergillus fumigatus [4]; [8]): 0.09 µg/mL (≈ 0.272 µM)

CC(c1ccccn1)C(O)(Cn1cncn1)c1ccc(F)cc1F (stereo in doubt; 23b)
MIC (Aspergillus fumigatus [3]): 0.39 µg/mL (≈ 1.18 µM)
MFC (Aspergillus fumigatus [4]): 1.56 µg/mL (≈ 4.72 µM)

CC(c1ncncc1F)C(O)(Cn1cncn1)c1ccc(F)cc1F (stereo not given)
No. of cures (Mus musculus [1]): 4
No. of survivors (Mus musculus [2]): 5
MIC (Aspergillus fumigatus [3]; [7]): 0.39 µg/mL (≈ 1.12 µM)
MFC (Aspergillus fumigatus [4]; [8]): 0.78 µg/mL (≈ 2.23 µM)

OC(Cc1ccccn1)(Cn1cncn1)c1ccc(F)cc1F (stereo not given)
MIC (Aspergillus fumigatus [3]; [7]): 25 µg/mL (≈ 79 µM)

CC(c1ccncc1F)C(O)(Cn1cncn1)c1ccc(F)cc1F (stereo not given)
No. of cures (Mus musculus [1]): 5
No. of survivors (Mus musculus [2]): 5
MIC (Aspergillus fumigatus [3]; [7]): 0.098 µg/mL (≈ 0.281 µM)
MFC (Aspergillus fumigatus [4]; [8]): 0.19 µg/mL (≈ 0.545 µM)

CC(c1ccncn1)C(O)(Cn1cncn1)c1ccc(F)cc1F (stereo not given)
No. of cures (Mus musculus [1]): 0
No. of survivors (Mus musculus [2]): 3
MIC (Aspergillus fumigatus [3]; [7]): 0.39 µg/mL (≈ 1.18 µM)
MFC (Aspergillus fumigatus [4]; [8]): 0.39 µg/mL (≈ 1.18 µM)

CCC(C)n1ncn(-c2ccc(N3CCN(c4ccc(OCC5COC(Cn6cncn6)(c6ccc(Cl)cc6Cl)O5)cc4)CC3)cc2)c1=O (stereo not given) [ITRACONAZOLE]
No. of cures (Mus musculus [1]): 3
No. of survivors (Mus musculus [2]): 4
MIC (Nakaseomyces glabratus): 0.19 µg/mL (≈ 0.269 µM)
MIC (Pichia kudriavzevii): 0.05 µg/mL (≈ 0.0709 µM)
MIC (Aspergillus fumigatus [3]): 0.14 µg/mL and 0.39 µg/mL
MIC (Candida albicans [5]): 0.12 µg/mL (≈ 0.17 µM)
MIC (Cryptococcus neoformans): 0.39 µg/mL (≈ 0.553 µM)
MIC (Aspergillus fumigatus [4]): 0.19 µg/mL (≈ 0.269 µM)

C[C@@H](c1ncncc1F)[C@](O)(Cn1cncn1)c1ccc(F)cc1F [VORICONAZOLE]
MIC (Candida albicans [6]): 0.03 µg/mL (≈ 0.0859 µM)
MIC (Nakaseomyces glabratus): 0.19 µg/mL (≈ 0.544 µM)
MIC (Pichia kudriavzevii): 0.24 µg/mL (≈ 0.687 µM)
MIC (Aspergillus fumigatus [3]; [7]): 0.09 µg/mL (≈ 0.258 µM)
MIC (Cryptococcus neoformans): 0.39 µg/mL (≈ 1.12 µM)

OC(Cn1cncn1)(Cn1cncn1)c1ccc(F)cc1F [FLUCONAZOLE]
MIC (Nakaseomyces glabratus): 1.9 µg/mL (≈ 6.2 µM)
MIC (Pichia kudriavzevii): > 25 µg/mL
MIC (Aspergillus fumigatus [3]; [7]): > 50 µg/mL
MIC (Candida albicans [5]): 1 µg/mL (≈ 3.27 µM)
MIC (Cryptococcus neoformans): 9.6 µg/mL (≈ 31.3 µM)
MFC (Aspergillus fumigatus [4]; [8]): > 50 µg/mL

CC(c1ncnc(Cl)c1F)C(O)(Cn1cncn1)c1ccc(F)cc1F (stereo not given)
MIC (Aspergillus fumigatus [3]; [7]): 3.1 µg/mL (≈ 8.08 µM)
MFC (Aspergillus fumigatus [4]; [8]): 3.1 µg/mL (≈ 8.08 µM)

CC(n1cncn1)C(O)(Cn1cncn1)c1ccc(F)cc1F (stereo not given)
MIC (Aspergillus fumigatus [3]; [7]): 12.5 µg/mL (≈ 39 µM)
MFC (Aspergillus fumigatus [4]; [8]): 25 µg/mL (≈ 78.1 µM)

CC(c1cccnc1)C(O)(Cn1cncn1)c1ccc(F)cc1F (stereo not given)
MIC (Aspergillus fumigatus [3]; [7]): 0.39 µg/mL (≈ 1.18 µM)

OC(Cc1ccncc1)(Cn1cncn1)c1ccc(F)cc1F (stereo not given)
MIC (Aspergillus fumigatus [3]; [7]): 3.1 µg/mL (≈ 9.8 µM)

CC(c1ccccn1)C(O)(Cn1cncn1)c1ccc(F)cc1F (stereo in doubt; 23a)
MIC (Aspergillus fumigatus [3]): 12.5 µg/mL (≈ 37.8 µM)
MFC (Aspergillus fumigatus [4]): 100 µg/mL (≈ 303 µM)

CC(c1ncnc(Cl)c1Cl)C(O)(Cn1cncn1)c1ccc(F)cc1F (stereo not given)
MIC (Aspergillus fumigatus [3]; [7]): 3.1 µg/mL (≈ 7.75 µM)
MFC (Aspergillus fumigatus [4]; [8]): 12.5 µg/mL (≈ 31.2 µM)

CC(c1ncncc1Cl)C(O)(Cn1cncn1)c1ccc(F)cc1F (stereo not given)
MIC (Aspergillus fumigatus [3]; [7]): 0.39 µg/mL (≈ 1.07 µM)
MFC (Aspergillus fumigatus [4]; [8]): 1.56 µg/mL (≈ 4.26 µM)
